Consider two compounds from patent US7326721B2 (Hypnion, Inc., priority 2003, dated 2008).

Molecules are shown by their SMILES.

The test system of data set [1] is human hepatocytes. The experiment in a line: In vitro metabolism in human (cryopreserved) hepatocytes. Conditions: human hepatocyte cultures. The data set is classed as in vitro ADME. The protocol:
Metabolism of test articles in monkey and human cryopreserved hepatocytes is assayed as follows:
Sample is diluted with DMSO, to prepare 100 μM and 10 μM stocks. 0.1% formic acid in acetonitrile is prepared by the addition of 1 mL formic acid per 1 L acetonitrile (store RT for 3 months). 10 minute, 60 and 120 minute 96 well quenching plates are prepared with 150 μL acetonitrile+0.1% formic acid in each well. Store on ice or refrigerated.
Next, hepatocytes are thawed and 100 μL of cell suspension is placed into a microfuge tube with 100 μL 0.4% Trypan Blue solution and gently mix by inversion. A small amount of the stained cell suspension (approximately 15 μL) is placed into a clean hemacytometer with a coverslip. The hemacytometer is placed onto the stage of the microscope and the focus and power are adjusted until a single counting square fills the field. The number of cells in the four outside corner subdivided squares of the hemacytometer are counted. Viable cells are opalescent, round, and pale with a darker outline. Non-viable cells are dark, opaque blue.
198 μL of hepatocytes are transferred to relevant wells on dosing plate.
Plates are preincubated for at least 15 min. […]
Cytochrome P450 inhibition was studied with HY2901 in vitro. […] In addition, the in vitro rate of metabolism in rat, dog, monkey, and human hepatocyte cultures was determined for HY2901.

Data set [2] relates to telemetered Beagle dogs. The experiment in a line: ECG and arterial blood pressure in telemetered Beagle dogs. It counts as in vivo, dog. As to the method:
To determine if HY2901 could produce any changes in QT interval, the compound was studied in telemetered Beagle dogs. Dogs were implanted with devices to continuously monitor ECG and arterial blood pressure. Dogs (groups of 4) were studied in a Latin square cross-over design, with each dog receiving 3 different doses and a placebo. Two studies were conducted with doses of 0.3, 1, 3, 10, and 30 mg/kg. […] The tachycardia persisted for 6–8 hours postdose at 0.3 and 1 mg/kg. A ceiling effect to the heart rate increase seemed to exist with heart rates peaking at approximately 150–160 in both the 10 and 30 mg/kg dose groups.

A short description of data set [3]: 14-day dog study with recovery phase. The data set is classed as in vivo. Conditions: Beagle, dog, in vivo. As to the method:
(§1) The toxicity and the toxicokinetics of HY2901 when administered daily via oral gavage (Phase 1) or capsules (Phase 2) to dogs for at least 14 days was determined. The reversibility, persistence, or delayed occurrence of observable effects following a 7-day (Phase 1) or 14-day (Phase 2) recovery period was also assessed. Doses of 3, 10, 30, and 70 mg/kg/day were studied.

The test system of data set [4] is Beagles. The experiment in a line: 14-day dog study with recovery phase. The data set is classed as in vivo. The protocol: as §1
Data set [5] addresses Oxidase, MAO-A, Peripheral (Homo sapiens, UniProt P21397). The experiment in a line: Table 12 panel: MAO-A. The data set is classed as biochemical. Conditions: 1.0E−6, average N=2. From the text:
(§2) The percentage inhibition (average; N=2) for these receptors is shown below in Table 12.
(§3) Values in Table 12 are expressed as percentage inhibition of specific binding, and these values represent the average of replicate tubes at each of the concentrations tested.

The subject of data set [6] is Glutamate, Kainate Site. The experiment in a line: Table 12 panel: Glutamate, Kainate. Particulars: 1.0E−6, average N=2. It counts as binding.
Source text: as §2, §3

Data set [7] concerns Adenosine, Non-selective. The experiment in a line: Table 12 panel: Adenosine, Non-selective. The data set is classed as binding. Particulars: 1.0E−6, average N=2.
Source text: as §2, §3

In data set [8] the test system is Vasoactive Intestinal Peptide, Non-selective. The experiment in a line: Table 12 panel: VIP. The data set is classed as binding. Conditions: 1.0E−6, average N=2.
Source text: as §2, §3

For data set [9], the target named is Cholecystokinin, CCK2 (CCKB) (Homo sapiens, UniProt P32239). The experiment in a line: Table 12 panel: CCK2. Conditions: 1.0E−6, average N=2, read-out: percentage inhibition of specific binding.
Source text: as §2, §3

Data set [10] concerns Muscarinic, Non-selective, Peripheral. The experiment in a line: Table 12 panel: Muscarinic, Peripheral. It counts as binding. Particulars: 1.0E−6, average N=2.
Source text: as §2, §3

Data set [11] relates to Melatonin, Non-selective. The experiment in a line: Table 12 panel: Melatonin. It counts as binding. Conditions: 1.0E−6, average N=2.
Source text: as §2, §3

Cholecystokinin, CCK2 (CCKB), sequence (P32239 whole entry): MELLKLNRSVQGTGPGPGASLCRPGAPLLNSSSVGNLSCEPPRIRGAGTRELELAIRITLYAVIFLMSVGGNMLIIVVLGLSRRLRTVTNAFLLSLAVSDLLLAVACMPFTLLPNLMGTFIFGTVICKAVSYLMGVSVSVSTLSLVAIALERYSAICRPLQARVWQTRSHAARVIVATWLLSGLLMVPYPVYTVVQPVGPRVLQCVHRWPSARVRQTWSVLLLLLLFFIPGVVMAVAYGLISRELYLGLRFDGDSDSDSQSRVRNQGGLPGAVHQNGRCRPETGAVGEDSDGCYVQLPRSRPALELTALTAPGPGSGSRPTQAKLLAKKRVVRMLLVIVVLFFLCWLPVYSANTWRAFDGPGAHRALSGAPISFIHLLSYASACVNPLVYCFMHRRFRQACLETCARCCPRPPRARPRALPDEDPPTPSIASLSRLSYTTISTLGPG
Oxidase, MAO-A, Peripheral, sequence (P21397 whole entry): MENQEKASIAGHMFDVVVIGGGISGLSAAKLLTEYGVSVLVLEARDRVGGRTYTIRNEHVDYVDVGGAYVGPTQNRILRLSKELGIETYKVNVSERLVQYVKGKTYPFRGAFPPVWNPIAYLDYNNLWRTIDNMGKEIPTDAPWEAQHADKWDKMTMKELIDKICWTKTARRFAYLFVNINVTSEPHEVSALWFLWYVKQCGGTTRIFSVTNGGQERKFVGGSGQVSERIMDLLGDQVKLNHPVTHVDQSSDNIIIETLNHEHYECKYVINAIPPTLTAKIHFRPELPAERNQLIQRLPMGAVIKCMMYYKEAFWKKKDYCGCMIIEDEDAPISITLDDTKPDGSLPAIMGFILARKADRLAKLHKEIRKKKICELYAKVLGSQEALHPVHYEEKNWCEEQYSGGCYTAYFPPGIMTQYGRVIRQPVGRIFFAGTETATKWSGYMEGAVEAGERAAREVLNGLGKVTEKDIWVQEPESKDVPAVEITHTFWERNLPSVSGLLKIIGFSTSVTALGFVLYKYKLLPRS

For orientation: NOAEL means the highest tested level that showed no adverse finding. Take `CC(C)(CN1CCC(=C2c3ccc(F)cc3COc3ccccc32)CC1)C(=O)O` [Compound 49a]: the in vitro metabolism result in [1] is “little metabolism was observed”. Moreover, the “persistence of tachycardia postdose” value in [2] (0.3 and 1 mg/kg) lay within 6 to 8 h. Moreover, the peak heart rate in [2] (10 and 30 mg/kg dose groups) is 150–160. For the same compound, in data set [2] (doses of 0.3, 1, 3, 10, and 30 mg/kg), the “QT or corrected QT interval” value is reported as “no changes in QT or corrected QT interval at any dose”. Moreover, the heart rate effect entry in [2] (doses of 0.3 to 30 mg/kg, intravenous or oral) is on record as “dose-related sinus tachycardia”. This compound also registered a persistence of tachycardia in [2] (higher doses) of 10 to 12 h. Besides, the blood pressure result in data set [2] (paralleled the tachycardia) was “slight increase in blood pressure”. The compound further registered an NOAEL at 14 days in [3] of 70 mg/kg/day. Further, the clinical observations result in data set [4] (3 mg/kg/day Phase 1 dogs) is “no treatment-related clinical observations”; in data set [4] (Phase 2 (capsules)), “treatment-related head tremors, ataxia, hypoactivity, and excessive salivation”. Besides, the “respiration rates, rectal body temperatures, body weights, food consumption, electrocardiograms, ophthalmic examinations” value in data set [4] (Phase 1 and 2) is recorded as “no changes”. The clinical laboratory data entry in [4] (dog, in vivo) is recorded as “no evidence in the clinical laboratory data of an effect”. Besides, the survival entry in data set [4] (dog, in vivo) is “survived until scheduled sacrifice”.
As usually defined, the inhibition is the percentage by which the read-out fell short of the control. For the compound `CC(CC(=O)O)N1CCC(=C2c3ccc(F)cc3COc3ccccc32)CC1` (centres unmarked) [Compound 37], the percentage inhibition in data set [5] was −17.23% ^. For the same compound, the “percentage inhibition of specific binding” value was found to be 1.51% in data set [6]; 6.49% in [7]; 2.51% in data set [8]; 5.37% in [10]; 11.29% in [11]. The inhibition at 1 µM in data set [9] turned out to be 3.98%.
